Measured values: ChEMBL document CHEMBL1201862, “PubChem BioAssay data set” (2004)
The source made the active and inactive calls.

Key:
[1] = bead-based luminescence quenchers, dual-tagged ARNT – biochemical, AlphaScreen, cherry-pick, artefact control for ARNT-TACC3 interaction inhibitor project, dose response (AID 651705); type: functional;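 also: AlphaScreen bead proximity signal that flags compounds interfering with the detection technology; potency reflects signal decrease which marks the compound as an assay artifact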
Beta-galactosidase = Beta-galactosidase (Escherichia coli, UniProt Q8VNN2); assay: PubChem AID 485352; type: functional
[2] = target: T1, Type-1 angiotensin II receptor (Homo sapiens, UniProt P30556); assay: antagonism of angiotensin II type 1 receptor – cell-based, uHTS hits, selectivity assay for APJ receptor antagonist project, dose response (AID 463214); type: functional;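 also: antagonist potency against angiotensin II stimulated AT1 response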
T1 sequence (P30556 whole entry): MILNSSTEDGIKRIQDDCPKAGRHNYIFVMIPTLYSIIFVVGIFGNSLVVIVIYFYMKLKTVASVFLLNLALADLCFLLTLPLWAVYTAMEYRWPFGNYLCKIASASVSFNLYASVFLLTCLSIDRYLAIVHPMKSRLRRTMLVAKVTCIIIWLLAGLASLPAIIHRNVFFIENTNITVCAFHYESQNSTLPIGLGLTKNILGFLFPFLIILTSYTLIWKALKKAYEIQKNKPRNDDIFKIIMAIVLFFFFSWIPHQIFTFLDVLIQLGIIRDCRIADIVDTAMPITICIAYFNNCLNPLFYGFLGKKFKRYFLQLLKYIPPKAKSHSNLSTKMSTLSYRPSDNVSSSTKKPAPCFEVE

[3] = target: T2, Ubiquitin-conjugating enzyme E2 N (Homo sapiens, UniProt P61088); type: functional;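 also: Dose-response confirmation in a TR-FRET assay detecting UBC13-driven polyubiquitin chain formation, inhibition measured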
T2 sequence (P61088 whole entry): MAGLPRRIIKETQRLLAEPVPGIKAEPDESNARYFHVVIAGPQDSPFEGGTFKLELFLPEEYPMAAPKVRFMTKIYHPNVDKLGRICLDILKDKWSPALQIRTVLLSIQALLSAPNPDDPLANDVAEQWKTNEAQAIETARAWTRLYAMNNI

[4] = target: T3, Microphthalmia-associated transcription factor (Homo sapiens, UniProt O75030); assay: reducers of TRPM1 reporter luminescence, concentration series – cell-based, SK-MEL-5, cherry-picked, set 3, MITF inhibitor project, dose response (AID 493073); type: functional;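 also: SK-MEL-5 melanoma cells with luciferase driven by the MITF target TRPM1 promoter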
T3 sequence (O75030 whole entry): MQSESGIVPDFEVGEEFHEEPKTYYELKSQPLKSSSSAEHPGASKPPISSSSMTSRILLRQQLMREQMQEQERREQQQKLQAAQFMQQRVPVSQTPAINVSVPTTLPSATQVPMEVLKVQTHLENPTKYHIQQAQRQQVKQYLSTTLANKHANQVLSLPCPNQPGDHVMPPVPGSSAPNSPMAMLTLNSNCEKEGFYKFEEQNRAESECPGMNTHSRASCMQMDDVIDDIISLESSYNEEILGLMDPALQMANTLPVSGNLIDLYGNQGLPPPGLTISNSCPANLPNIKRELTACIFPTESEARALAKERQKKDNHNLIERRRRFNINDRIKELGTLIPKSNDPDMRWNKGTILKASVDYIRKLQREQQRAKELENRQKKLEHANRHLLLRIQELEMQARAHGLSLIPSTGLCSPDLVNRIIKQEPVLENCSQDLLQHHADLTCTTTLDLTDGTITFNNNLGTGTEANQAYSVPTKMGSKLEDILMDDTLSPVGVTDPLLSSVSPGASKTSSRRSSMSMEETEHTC

A-375 = assay: MITF: Counter assay: A375 proliferation Measured in Cell-Based System Using Plate Reader - 2084-03_Inhibitor_Dose_DryPowder_Activity. [Related pubchem assays (depositor defined):AID488944]; type: functional; settings: Homo sapiens
Melanocortin receptor 4 = Melanocortin receptor 4 (Homo sapiens, UniProt P32245); type: functional, cell-based;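 also: Cell-based assay with luminescence read-out, confirmatory dose-response testing for agonist activity of biased ligands at MC4R; human U2OS cells with tagged receptor and beta-arrestin; potency of agonists that increase receptor coupling to beta-arrestin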
[5] = target: Tyrosine-protein phosphatase non-receptor type 11 (Homo sapiens, UniProt Q06124); assay: PTPN11 enzyme inhibitors – biochemical, selectivity assay for STEP inhibitor project, dose response (AID 602367); type: functional; settings: read-out: IC50_Mean
[6] = target: Tyrosine-protein phosphatase non-receptor type 5 (Homo sapiens, UniProt P54829); assay: PTPN5 enzyme inhibition – biochemical, fluorescence intensity, uHTS hits, confirmation (AID 602372); type: functional; settings: read-out: IC50_Mean
[7] = target: Dual specificity protein phosphatase 3 (Homo sapiens, UniProt P51452); assay: VHR phosphatase inhibition, dose response, selectivity assay for STEP inhibitor project, biochemical (AID 602374); type: functional; settings: read-out: IC50_Mean
Cytochrome P450 2D6 = Cytochrome P450 2D6 (Homo sapiens, UniProt P10635);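 also: CYP2D6 member of a cytochrome P450 panel assay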
[8] = NIH-3T3 fibroblast cytotoxicity, dose response, cytotoxicity control, cell-based, fluorescence, Alamar Blue, secondary assay (AID 2327); type: functional;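 also: NIH-3T3 mouse fibroblasts cultured with fluconazole at 8 µg/mL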
[9] = fluconazole-exposed Candida albicans growth modulators – fluorescence, retest, confirmation (AID 2467); type: functional, cell-based
[10] = target: T4, Serine/threonine-protein phosphatase (Candida dubliniensis (strain CD36 / CBS 7987 / NCPF 3949 / NRRLY-17841) (Yeast), UniProt B9W6M3); assay: blockers of CaCl2-induced CDRE-lacZ signaling – S. cerevisiae, luminescence, secondary, dose response (AID 2388); type: functional, cell-based;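 also: yeast reporter cells carrying a calcineurin-responsive lacZ construct stimulated with calcium chloride; luminescent beta-galactosidase reporter signal in whole cells rather than isolated phosphatase activity; potency for inhibition where a drop in reporter signal means calcineurin blockade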
T4 sequence (B9W6M3 whole entry): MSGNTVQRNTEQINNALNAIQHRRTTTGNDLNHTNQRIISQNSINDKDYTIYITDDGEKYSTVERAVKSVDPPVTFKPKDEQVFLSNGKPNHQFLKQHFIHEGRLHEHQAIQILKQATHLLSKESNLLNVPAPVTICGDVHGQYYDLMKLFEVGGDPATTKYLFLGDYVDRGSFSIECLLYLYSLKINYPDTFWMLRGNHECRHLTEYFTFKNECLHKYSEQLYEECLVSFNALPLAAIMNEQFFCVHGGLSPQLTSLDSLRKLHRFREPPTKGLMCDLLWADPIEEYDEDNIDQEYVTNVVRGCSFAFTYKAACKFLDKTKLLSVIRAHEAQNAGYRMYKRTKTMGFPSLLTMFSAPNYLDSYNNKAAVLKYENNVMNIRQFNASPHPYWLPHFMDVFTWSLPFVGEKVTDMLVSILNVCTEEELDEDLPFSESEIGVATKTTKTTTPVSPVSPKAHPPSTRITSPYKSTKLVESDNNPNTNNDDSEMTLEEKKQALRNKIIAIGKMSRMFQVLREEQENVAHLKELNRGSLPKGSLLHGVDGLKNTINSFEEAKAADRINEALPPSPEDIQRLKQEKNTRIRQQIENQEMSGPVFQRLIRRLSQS

[11] = target: ATP-dependent molecular chaperone HSP82 (Candida albicans (strain WO-1) (Yeast), UniProt C4YTQ8); assay: steroid-induced GRE reporter decrease in yeast – S. cerevisiae, luminescence, Hsp90 inhibitor project, dose response (AID 2400); type: functional, cell-based;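 also: beta-galactosidase luminescence from glucocorticoid response element reporter as proxy for Hsp90 function; inhibitor potency where signal loss means Hsp90 inhibition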
[12] = luciferase reporter signal suppression in cells – H4 neuroglioma cells, luminescence, dose response (AID 1990); type: functional, cell-based
BJ [13] = assay: BJ-TERT fibroblast viability loss – cell-based, RAS-independent, luminescence, dose response (AID 1933); type: functional; settings: Homo sapiens
[14] = Luminescence Cell-Based Dose Response HTS to Identify Inhibitors of 5'UTR Stem-Loop Driven Prion Protein mRNA Translation in H4 Neuroglioblastoma Cells. [Related pubchem assays: 1827 (Project Summary), 1813 (Primary HTS)]; type: functional
[15] = alpha-synuclein stem-loop luciferase translation blockers – H4 neuroglioma cells, luminescence, confirmation (AID 1988); type: functional, cell-based
BJ [16] = assay: cells; type: functional, cell-based; settings: Homo sapiens
BJ [17] = assay: BJ-TERT-LT-ST fibroblast viability loss – cell-based, RAS-independent, luminescence, dose response (AID 1935); type: functional; settings: Homo sapiens;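 also: BJ fibroblasts immortalized with TERT plus LT and ST oncogenes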
[18] = DRD fibroblast viability loss – cell-based, non-viral oncogenic, luminescence, dose response (AID 1934); type: functional; settings: Homo sapiens
[19] = target: T5, Short transient receptor potential channel 4 (Mus musculus, UniProt Q9QUQ5); assay: block of DAMGO-driven TRPC4 calcium entry – cell-based, HEK293 TRPC4/mu-opioid, Fluo-4 calcium, dose response (AID 434942); type: functional;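 also: potency of inhibitors blocking the TRPC4 calcium response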
T5 sequence (Q9QUQ5 whole entry): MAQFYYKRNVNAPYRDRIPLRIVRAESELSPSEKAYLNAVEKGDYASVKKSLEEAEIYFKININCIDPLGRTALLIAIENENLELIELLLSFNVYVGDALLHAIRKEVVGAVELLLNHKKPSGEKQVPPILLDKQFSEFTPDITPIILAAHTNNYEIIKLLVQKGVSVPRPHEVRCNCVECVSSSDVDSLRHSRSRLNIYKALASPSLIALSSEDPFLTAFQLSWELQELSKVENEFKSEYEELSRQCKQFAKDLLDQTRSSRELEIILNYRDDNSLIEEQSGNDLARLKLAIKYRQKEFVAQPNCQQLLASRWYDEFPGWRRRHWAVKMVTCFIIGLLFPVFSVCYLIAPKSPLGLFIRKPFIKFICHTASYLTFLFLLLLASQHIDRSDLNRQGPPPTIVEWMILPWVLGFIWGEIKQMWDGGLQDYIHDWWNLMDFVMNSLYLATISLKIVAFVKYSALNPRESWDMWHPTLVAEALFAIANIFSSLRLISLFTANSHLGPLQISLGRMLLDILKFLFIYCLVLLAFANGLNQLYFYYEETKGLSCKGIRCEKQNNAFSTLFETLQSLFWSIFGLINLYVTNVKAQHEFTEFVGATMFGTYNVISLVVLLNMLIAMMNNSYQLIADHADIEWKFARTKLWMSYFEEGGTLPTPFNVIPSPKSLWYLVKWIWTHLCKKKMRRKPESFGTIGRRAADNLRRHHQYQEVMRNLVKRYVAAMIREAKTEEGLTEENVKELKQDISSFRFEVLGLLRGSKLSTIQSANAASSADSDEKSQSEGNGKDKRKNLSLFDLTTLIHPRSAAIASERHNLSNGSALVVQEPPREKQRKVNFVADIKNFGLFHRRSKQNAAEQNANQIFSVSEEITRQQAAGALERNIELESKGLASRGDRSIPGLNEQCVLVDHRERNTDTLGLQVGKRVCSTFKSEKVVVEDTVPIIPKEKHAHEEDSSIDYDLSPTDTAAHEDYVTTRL

BJ [20] = assay: growth inhibition of engineered Ras-driven BJ cells – cell-based, alamar blue fluorescence, cherrypicked samples, dose response (AID 2631); type: functional; settings: Homo sapiens;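 also: confirmatory dose-response assay in RAS-dependent BJ fibroblasts engineered with TERT, LT and ST, with cytotoxicity read by fluorescence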
[21] = target: Ras and Rab interactor 1/Tyrosine-protein kinase ABL1 (Homo sapiens, UniProt P00519+Q13671); type: functional;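 also: biochemical TR-FRET dose-response test measuring inhibition of binding between Rin1 and Abl proteins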
cells [22] = type: functional, cell-based
cells [23] = type: functional, cell-based; remark: listed apart in the source
[24] = target: Heat shock protein HSP 90-alpha (Homo sapiens, UniProt P07900); type: functional, organism-based
INS1 = assay: INS-1E survival protection against cytokine death – cell-based, luminescence, retest, dose response (AID 449756); type: functional; settings: Rattus norvegicus;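 also: cell death triggered by IL-1 beta plus TNF-alpha plus IFN-gamma mixture; protective hits raise ATP signal compared with cytokine alone wells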
[25] = HEK-293T viability loss after treatment – luminescence, T-cell screen hits, cytotoxicity control for TCR NF-kB inhibitor project, dose response (AID 489026); type: functional, cell-based;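 also: cells exposed to compound about 14 hours before the viability readout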
[26] = M. tuberculosis H37Rv growth inhibitors, H37Rv strain (AID 1626); type: functional

Sequence of ATP-dependent molecular chaperone HSP82 (C4YTQ8 whole entry): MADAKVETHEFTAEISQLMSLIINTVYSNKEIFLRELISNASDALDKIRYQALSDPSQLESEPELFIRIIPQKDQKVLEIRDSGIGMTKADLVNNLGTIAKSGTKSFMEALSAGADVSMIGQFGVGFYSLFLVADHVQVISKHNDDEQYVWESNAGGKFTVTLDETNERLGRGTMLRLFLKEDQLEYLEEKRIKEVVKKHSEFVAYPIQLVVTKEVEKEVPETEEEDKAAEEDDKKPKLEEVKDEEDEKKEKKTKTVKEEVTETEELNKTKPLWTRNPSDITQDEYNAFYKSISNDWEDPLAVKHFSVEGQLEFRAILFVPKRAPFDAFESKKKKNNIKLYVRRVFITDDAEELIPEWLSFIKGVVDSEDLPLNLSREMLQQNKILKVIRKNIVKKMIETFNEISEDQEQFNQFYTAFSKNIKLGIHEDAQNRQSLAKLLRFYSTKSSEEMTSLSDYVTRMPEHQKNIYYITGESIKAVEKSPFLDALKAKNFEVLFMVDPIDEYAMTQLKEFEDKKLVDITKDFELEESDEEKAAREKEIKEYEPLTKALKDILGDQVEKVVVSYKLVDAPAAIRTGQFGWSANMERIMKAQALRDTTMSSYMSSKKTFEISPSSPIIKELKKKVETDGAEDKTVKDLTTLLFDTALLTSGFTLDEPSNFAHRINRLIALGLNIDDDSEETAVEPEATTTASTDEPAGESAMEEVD
Sequence of Melanocortin receptor 4 (P32245 whole entry): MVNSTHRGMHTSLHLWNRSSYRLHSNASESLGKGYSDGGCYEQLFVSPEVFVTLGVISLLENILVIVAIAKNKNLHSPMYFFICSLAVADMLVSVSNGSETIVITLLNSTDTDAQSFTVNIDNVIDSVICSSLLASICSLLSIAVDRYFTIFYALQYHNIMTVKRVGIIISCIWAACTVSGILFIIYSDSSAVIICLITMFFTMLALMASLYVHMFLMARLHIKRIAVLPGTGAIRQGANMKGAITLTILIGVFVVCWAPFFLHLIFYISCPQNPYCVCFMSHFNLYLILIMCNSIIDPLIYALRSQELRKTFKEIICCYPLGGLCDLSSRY
Sequence of Beta-galactosidase (Q8VNN2 whole entry): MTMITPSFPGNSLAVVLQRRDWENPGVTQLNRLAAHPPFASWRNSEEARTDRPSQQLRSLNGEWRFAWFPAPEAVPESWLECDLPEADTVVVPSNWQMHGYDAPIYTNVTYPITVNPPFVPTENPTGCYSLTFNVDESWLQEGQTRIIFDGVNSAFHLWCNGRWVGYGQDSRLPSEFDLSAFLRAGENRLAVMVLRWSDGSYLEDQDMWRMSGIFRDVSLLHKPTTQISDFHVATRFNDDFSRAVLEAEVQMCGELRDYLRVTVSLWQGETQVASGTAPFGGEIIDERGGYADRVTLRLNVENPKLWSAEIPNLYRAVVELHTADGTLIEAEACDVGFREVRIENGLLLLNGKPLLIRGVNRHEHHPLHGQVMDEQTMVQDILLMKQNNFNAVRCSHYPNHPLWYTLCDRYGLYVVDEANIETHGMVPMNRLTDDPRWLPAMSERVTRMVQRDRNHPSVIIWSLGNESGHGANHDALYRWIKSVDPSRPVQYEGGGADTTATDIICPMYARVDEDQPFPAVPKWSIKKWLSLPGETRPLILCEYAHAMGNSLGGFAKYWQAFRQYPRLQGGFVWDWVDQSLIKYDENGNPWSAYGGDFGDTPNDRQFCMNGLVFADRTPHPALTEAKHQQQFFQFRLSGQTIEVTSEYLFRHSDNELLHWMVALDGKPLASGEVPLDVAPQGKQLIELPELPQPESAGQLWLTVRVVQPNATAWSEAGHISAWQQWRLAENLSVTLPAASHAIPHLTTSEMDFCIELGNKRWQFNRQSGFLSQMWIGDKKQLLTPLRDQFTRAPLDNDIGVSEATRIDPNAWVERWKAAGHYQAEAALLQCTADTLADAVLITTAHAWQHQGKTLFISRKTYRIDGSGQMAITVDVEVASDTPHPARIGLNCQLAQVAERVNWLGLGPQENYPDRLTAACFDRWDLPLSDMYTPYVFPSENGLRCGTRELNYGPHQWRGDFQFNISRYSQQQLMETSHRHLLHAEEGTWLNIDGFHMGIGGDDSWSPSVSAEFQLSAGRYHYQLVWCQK
Sequence of Ras and Rab interactor 1/Tyrosine-protein kinase ABL1 (P00519 whole entry): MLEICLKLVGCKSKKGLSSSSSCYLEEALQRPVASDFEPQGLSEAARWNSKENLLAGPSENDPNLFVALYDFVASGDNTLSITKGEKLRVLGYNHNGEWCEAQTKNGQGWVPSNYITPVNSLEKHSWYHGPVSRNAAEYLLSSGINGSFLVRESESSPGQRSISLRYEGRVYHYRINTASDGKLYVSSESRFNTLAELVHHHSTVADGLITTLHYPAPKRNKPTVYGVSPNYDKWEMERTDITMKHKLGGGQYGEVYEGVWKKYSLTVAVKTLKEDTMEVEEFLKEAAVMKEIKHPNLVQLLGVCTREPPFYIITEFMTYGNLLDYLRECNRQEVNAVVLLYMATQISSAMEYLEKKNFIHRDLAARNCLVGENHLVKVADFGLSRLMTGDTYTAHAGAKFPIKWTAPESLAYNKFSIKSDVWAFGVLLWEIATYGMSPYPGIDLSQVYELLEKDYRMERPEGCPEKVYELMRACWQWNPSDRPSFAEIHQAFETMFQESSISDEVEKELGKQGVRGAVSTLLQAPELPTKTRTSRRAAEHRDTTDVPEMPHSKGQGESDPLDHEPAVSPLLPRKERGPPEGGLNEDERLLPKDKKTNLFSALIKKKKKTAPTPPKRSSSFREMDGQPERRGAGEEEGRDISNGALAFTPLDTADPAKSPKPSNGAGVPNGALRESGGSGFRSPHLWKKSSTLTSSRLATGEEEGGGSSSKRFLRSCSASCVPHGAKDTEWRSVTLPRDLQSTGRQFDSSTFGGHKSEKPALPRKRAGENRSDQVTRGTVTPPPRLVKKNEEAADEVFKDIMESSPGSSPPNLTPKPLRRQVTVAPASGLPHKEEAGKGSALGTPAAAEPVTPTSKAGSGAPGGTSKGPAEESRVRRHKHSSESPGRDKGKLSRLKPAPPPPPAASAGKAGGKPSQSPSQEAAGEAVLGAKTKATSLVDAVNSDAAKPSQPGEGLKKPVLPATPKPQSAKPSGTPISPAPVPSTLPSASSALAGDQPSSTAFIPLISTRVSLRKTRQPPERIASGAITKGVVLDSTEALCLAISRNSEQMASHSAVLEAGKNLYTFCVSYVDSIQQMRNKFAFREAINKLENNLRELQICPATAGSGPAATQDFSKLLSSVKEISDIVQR
Sequence of Ras and Rab interactor 1/Tyrosine-protein kinase ABL1 (Q13671 whole entry): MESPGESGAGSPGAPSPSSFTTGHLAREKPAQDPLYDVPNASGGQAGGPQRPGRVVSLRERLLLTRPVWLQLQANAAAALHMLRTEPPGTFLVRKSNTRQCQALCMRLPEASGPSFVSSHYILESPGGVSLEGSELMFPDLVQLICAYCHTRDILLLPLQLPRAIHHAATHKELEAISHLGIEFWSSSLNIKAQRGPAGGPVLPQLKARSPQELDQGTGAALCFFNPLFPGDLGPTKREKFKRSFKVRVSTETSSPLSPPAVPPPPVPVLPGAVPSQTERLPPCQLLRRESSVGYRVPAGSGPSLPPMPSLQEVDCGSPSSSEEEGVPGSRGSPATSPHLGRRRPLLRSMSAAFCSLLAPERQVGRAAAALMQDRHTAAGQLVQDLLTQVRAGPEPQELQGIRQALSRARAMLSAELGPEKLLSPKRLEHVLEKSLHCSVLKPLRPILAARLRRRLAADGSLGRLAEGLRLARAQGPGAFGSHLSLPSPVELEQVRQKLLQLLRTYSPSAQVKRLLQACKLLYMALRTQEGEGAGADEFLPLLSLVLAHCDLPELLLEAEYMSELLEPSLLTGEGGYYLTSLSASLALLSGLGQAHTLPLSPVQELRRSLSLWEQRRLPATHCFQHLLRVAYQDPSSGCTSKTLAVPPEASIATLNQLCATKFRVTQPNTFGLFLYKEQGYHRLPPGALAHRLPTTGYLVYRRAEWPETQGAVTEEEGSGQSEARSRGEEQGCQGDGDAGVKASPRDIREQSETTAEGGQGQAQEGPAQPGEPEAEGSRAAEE
Sequence of Tyrosine-protein phosphatase non-receptor type 5 (P54829 whole entry): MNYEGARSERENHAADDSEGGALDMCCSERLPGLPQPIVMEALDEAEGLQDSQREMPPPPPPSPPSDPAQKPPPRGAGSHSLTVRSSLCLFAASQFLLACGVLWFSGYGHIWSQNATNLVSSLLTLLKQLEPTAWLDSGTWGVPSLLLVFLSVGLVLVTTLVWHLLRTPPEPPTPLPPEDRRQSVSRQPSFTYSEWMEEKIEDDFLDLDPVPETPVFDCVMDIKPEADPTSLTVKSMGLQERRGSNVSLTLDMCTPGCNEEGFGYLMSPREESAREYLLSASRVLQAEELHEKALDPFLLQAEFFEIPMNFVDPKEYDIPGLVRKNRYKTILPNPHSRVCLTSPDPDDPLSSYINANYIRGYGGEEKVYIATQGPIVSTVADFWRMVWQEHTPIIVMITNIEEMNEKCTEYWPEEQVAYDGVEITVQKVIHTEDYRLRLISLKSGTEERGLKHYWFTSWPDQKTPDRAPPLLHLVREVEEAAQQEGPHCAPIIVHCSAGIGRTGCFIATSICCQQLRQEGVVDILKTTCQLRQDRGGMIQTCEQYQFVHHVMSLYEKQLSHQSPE
Sequence of Dual specificity protein phosphatase 3 (P51452 whole entry): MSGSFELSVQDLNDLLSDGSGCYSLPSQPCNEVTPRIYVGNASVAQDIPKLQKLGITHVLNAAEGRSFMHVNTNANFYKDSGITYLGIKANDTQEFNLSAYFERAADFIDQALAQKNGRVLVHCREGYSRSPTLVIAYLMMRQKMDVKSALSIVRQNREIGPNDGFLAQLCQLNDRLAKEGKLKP

## NNc1ccc(S(=O)(=O)N2CCCCC2)cn1
[1]
  AC50: 87.7 µM (active)

## O=C(CNC(=O)c1ccco1)NCC(=O)OCC(=O)c1ccc(Cl)c([N+](=O)[O-])c1
Beta-galactosidase
  EC50: > 40 µM (inactive)
[2]
  IC50: 7.54 µM (active)

## CCCCCCCNC(=O)C1(CC2CC(c3ccc(Cl)cc3)=NO2)CCNCC1 (configuration not stated)
[3]
  IC50: > 20 µM (inactive)
[4]
  AC50: 14 µM (active)
A-375
  AC50: 19.9 µM (active)
Melanocortin receptor 4
  EC50: > 89.2 µM (inactive)

## Cc1nnc(NC(=O)c2ccc(S(=O)(=O)N3CC(C)OC(C)C3)cc2)o1 (configuration not stated)
[1]
  AC50: 122 µM (active)

## OCCN1CCN(C(=S)c2ccc(Br)cc2)CC1
[5]
  IC50: 3.34 µM (active)
[6]
  IC50: 20.1 µM (inactive)
[7]
  IC50: 1.3 µM (active)
Cytochrome P450 2D6
  AC50: 0.0224 µM (inconclusive)

## Nc1c(S(=O)(=O)c2ccccc2)c2nc3ccccc3nc2n1CCN1CCOCC1
[8]
  EC50: > 160 µM (inactive)
[9]
  EC50: 0.874 µM (active)
[10]
  EC50: > 180 µM (inactive)
[11]
  EC50: > 160 µM (inactive)

## COc1ccc2c(c1)sc(N)[n+]2Cc1cc(C)cc2cccnc12
[12]
  EC50: 7.07 µM (inconclusive)
BJ [13]
  EC50: 1.98 µM (active)
[14]
  EC50: 8.01 µM (active)
[15]
  EC50: 0.2 µM (active)
BJ [16]
  EC50: 1.55 µM (inconclusive)
BJ [17]
  EC50: 1.5 µM (inconclusive)
[18]
  EC50: 1.61 µM (active)
[19]
  EC50: 1.33 µM (active)
BJ [20]
  EC50: 0.605 µM (active)

## CNC(=O)Nc1cc(C(F)(F)F)cc(C(F)(F)F)c1
[8]
  EC50: > 150 µM (inactive)
[9]
  EC50: 1.34 µM (active)
[10]
  EC50: > 180 µM (inactive)
[11]
  EC50: > 150 µM (inactive)

## COc1ccc(Cl)cc1NC(=O)CN(C)C(=O)c1cc(-c2ccncc2)nc2ccccc12
[21]
  IC50: 1.86 µM (active)

## COc1cccc(-c2cnc3c(NC=O)cc(-c4ccoc4)cn23)c1
Melanocortin receptor 4
  EC50: > 89.2 µM (inactive)

## COc1cccc(/C=N/NC(=O)C(=O)Nc2ccccc2OC(F)(F)C(F)F)c1O
[8]
  EC50: > 160 µM (inactive)
Cells [22]
  EC50: 92.8 µM (active)
[9]
  EC50: 0.46 µM (active)
Cells [23]
  EC50: > 350 µM (not active)
[10]
  EC50: > 180 µM (inactive)
[24]
  AC50: 4.2 µM (active)
INS1
  AC50: 2.77 µM (active)
[11]
  EC50: 10.6 µM (active)

## O=C(N/N=C/c1ccccc1Cl)c1[nH]c2ccc(Br)cc2c1-c1ccccc1
[12]
  EC50: 0.304 µM (active)
BJ [13]
  EC50: 0.608 µM (active)
[14]
  EC50: 0.136 µM (active)
[15]
  EC50: 0.163 µM (active)
BJ [16]
  EC50: 27.5 µM (active)
BJ [17]
  EC50: 0.748 µM (inconclusive)
[18]
  EC50: 0.615 µM (active)
[25]
  IC50: > 80 µM (inactive)
BJ [20]
  EC50: 0.2 µM (active)

## O=C(Cc1ccc(NC(=O)C2CCN(C(=O)C3CCC3)CC2)cc1)Nc1ccc(C(=O)N2CCOCC2)cc1
[21]
  IC50: 16.5 µM (inactive)

## COc1ccc(/N=C2/C(=O)N3c4c(cccc42)C(C)=CC3(C)C)cc1
Beta-galactosidase
  EC50: > 40 µM (inactive)
[26]
  IC50: > 100 µM (active)
[2]
  IC50: > 40 µM (not active)
